19 molecules from patent US9783536B2, “Nitrogen-containing heterocyclic compound or salt thereof” (FUJIFILM Corporation, priority 2013, dated 2017) can be followed below.

Assay [1] deals with T1, GST fusion human ERK2 protein (Homo sapiens, UniProt P28482).
T1 construct: purchased Carna Biosciences, Inc; host or cells: E. coli expression system
In words: ERK2 enzyme assay (1). The note with it: 2.5 nmol/L ERK2, ATP 43.1 μmol/L; read-out: ERK2 enzyme inhibitory activity (1). Format: biochemical. As to the method: In an ERK2 enzyme assay, GLUTATHIONE S-TRANSFERASE (GST) FUSION HUMAN ERK2 PROTEIN (manufactured by Carna Biosciences, Inc.), which was produced by using an E. coli expression system, was used.
12 μL of a reaction liquid (2.5 nmol/L ERK2, 100 mmol/L Hepes, 10 mmol/L MgCl2, 1.5 mmol/L DTT, 0.003% Brij35, pH 7.5) including ERK2 protein and a test compound having a predetermined concentration was allowed to stand at room temperature for 15 minutes. Then, 3 μL of a mixture liquid of FL-PEPTIDE8 (5-FAM-IPTSPITTTYFFFKKK-COOH) (manufactured by Caliper Life Sciences), which is substrate peptide, and ATP (manufactured by Sigma-Aldrich Co. LLC.) was added thereto such that the final concentrations thereof became 4.25 μmol/L and 43.1 μmol/L, respectively, and an enzyme reaction was performed by allowing to stand at 25° C. for 120 minutes.
After the reaction, the enzyme reaction was stopped by adding 30 μL of a reaction stopper liquid (100 mmol/L HEPES, 11.2 mmol/L EDTA, 5.6% Brij35, pH 7.5) including a 0.5% COATING REAGENT 8 (trade name, manufactured by Perkin Elmer Inc.) thereto. Then, phosphorylated peptide and non-phosphorylated peptide were separated using LABCHIP EZ READER (trade name, manufactured by Caliper Life Sciences), and the porportion of the phosphorylated peptide was quantified.
The inhibitory activities of the compounds were evaluated using IC50 (50% inhibitory concentration). The IC50 was calculated using XLFIT (trade name, manufactured by ID Business Solutions).

In assay [2] the target is T2, human PI3Kα protein (Homo sapiens, UniProt P42336).
T2 construct: purchased Carna Biosciences, Inc; host or cells: baculovirus expression system
T2 sequence (P42336 whole entry): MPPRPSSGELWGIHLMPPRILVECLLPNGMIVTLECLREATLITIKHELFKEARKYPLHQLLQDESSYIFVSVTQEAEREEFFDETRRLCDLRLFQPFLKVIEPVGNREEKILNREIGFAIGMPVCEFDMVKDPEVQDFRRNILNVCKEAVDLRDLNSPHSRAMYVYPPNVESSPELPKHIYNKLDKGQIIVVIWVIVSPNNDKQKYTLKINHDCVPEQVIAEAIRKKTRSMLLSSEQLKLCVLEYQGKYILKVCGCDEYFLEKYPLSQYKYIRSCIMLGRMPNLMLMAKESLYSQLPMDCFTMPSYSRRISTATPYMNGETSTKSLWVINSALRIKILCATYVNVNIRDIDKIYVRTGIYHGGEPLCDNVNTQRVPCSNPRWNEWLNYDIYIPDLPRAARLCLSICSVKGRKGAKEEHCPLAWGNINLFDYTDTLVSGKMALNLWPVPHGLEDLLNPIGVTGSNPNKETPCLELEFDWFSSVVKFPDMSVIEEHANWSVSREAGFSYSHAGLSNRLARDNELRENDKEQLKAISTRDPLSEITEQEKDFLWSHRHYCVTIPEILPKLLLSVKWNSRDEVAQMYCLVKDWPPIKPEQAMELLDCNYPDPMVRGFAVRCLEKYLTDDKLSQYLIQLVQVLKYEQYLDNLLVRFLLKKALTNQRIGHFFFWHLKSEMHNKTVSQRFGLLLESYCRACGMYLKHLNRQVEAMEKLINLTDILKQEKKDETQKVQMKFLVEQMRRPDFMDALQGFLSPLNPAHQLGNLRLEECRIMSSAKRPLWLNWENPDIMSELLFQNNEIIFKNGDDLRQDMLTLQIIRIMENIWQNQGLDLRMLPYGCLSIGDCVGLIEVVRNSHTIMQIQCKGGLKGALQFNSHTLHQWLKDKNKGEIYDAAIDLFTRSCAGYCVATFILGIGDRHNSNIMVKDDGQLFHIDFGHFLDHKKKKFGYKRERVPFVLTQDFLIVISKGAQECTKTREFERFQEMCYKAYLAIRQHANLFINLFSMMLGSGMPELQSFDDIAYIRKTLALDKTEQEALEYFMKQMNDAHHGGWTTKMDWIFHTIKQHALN
T2 sequence (P27986 whole entry partner): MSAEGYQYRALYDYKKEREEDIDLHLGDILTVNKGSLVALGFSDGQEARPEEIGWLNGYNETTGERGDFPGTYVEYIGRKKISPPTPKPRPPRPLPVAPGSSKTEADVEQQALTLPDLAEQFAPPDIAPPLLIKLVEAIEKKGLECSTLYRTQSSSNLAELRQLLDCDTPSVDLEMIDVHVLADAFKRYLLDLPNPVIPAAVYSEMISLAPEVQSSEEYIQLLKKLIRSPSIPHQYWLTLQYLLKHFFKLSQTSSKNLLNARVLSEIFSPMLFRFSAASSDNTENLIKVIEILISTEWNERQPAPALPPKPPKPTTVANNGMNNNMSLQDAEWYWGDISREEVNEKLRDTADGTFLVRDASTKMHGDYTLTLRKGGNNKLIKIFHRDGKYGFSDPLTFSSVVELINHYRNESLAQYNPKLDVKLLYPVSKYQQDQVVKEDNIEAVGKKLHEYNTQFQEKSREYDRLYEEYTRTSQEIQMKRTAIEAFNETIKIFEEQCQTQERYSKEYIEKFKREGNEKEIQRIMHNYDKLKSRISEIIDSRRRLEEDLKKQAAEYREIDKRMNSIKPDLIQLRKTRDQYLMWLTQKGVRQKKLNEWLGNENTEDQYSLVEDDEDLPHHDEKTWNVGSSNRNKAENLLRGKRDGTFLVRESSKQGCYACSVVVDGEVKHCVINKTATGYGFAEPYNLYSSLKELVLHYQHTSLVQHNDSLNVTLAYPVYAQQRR
In words: PI3Kα enzyme assay (ADP-Glo). Type of assay: biochemical. Particulars: 4.5 nmol/L PI3Kα, PIP2 50 μmol/L, ATP 100 μmol/L; read-out: PI3Kα enzyme inhibitory activity. An outline of the steps:
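Biotinylated human PI3Kα (baculovirus-expressed, 4.5 nmol/L) pre-incubated 15 min with compound in Tris-HCl pH 7.5, MgCl2, BSA; reaction 60 min at 25° C with 50 μmol/L PIP2 and 100 μmol/L ATP final. ADP quantified by ADP-Glo luminescence; IC50 calculated.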

Counter-ions that a name gives are not always drawn.

T1 sequence (P28482 whole entry, the tested form may be a part): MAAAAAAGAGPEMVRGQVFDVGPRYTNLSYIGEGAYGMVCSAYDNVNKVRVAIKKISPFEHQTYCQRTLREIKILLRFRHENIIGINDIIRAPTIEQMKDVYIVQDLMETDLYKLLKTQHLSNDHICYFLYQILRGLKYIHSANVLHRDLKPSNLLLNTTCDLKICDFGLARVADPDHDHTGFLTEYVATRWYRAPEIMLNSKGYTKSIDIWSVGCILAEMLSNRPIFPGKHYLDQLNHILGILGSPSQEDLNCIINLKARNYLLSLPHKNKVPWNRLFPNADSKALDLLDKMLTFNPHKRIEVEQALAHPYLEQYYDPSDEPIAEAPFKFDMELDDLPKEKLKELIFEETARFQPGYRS

In the case of `CS(=O)(=O)N1CCN(c2cnc3ccc(Nc4nnc(C5CCCC5)s4)nc3c2)CC1` [Example 0053, 5-cyclopentyl-N-(7-(4-(methylsulfonyl)piperazin-1-yl)-1,5-naphthyridin-2-yl)-1,3,4-thiadiazole-2-amine hydrochloride], the IC50 in assay [1] is under 1000 nM; in assay [2], 1 to 10 µM.
In the case of `CN1CCN(c2cnc3ccc(Nc4nnc(C5CCCC5)s4)nc3c2)CC1=O` [Example 0054], the IC50 in assay [1] is under 1000 nM; in assay [2] it was under 1 µM.
The like results for `c1nc2ccc(Nc3nnc(C4CCCC4)s3)nc2cc1N1CCNCC1` [Example 0055] were, in that order, under 1000 nM and 1 to 10 µM.
For the molecule `CCOC(=O)C1CCCN(c2cnc3ccc(Nc4nnc(C5CCCC5)s4)nc3c2)C1` (centres unmarked) [Example 0056], the results for the IC50 in assay [1] and in assay [2] were under 1000 nM and 10 to 50 µM, respectively.
As for `CCOC(=O)C1CCN(c2cnc3ccc(Nc4nnc(C5CCCC5)s4)nc3c2)CC1` [Example 0057], the figures for the IC50 in assay [1] and in assay [2] were 1000 to 10000 nM and 10 to 50 µM, respectively.
With `O=C(CO)N1CCN(c2cnc3ccc(Nc4nnc(C5CCCC5)s4)nc3c2)CC1` [Example 0058, 1-(4-(6-((5-cyclopentyl-1,3,4-thiadiazol-2-yl)amino)-1,5-naphthyridin-3-yl)piperazin-1-yl)-2-hydroxyethanone], the IC50 was under 1000 nM in assay [1] and 1 to 10 µM in assay [2].
The like results for `CN(C)CC(=O)N1CCN(c2cnc3ccc(Nc4nnc(C5CCCC5)s4)nc3c2)CC1` [Example 0059, 1-(4-(6-((5-cyclopentyl-1,3,4-thiadiazol-2-yl)amino)-1,5-naphthyridin-3-yl)piperazin-1-yl)-2-(dimethylamino)ethanone] were, in that order, under 1000 nM and 1 to 10 µM.
On to `CN1CCCN(c2cnc3ccc(Nc4nnc(C5CCCC5)s4)nc3c2)CC1` [Example 0060], for which the IC50 is under 1000 nM in assay [1] and 10 to 50 µM in assay [2].
As to `COC[C@@H]1CCCN1c1cnc2ccc(Nc3nnc(C4CCCC4)s3)nc2c1` [Example 0061], the results for the IC50 in assay [1] and in assay [2] were under 1000 nM and 1 to 10 µM, respectively.
Take `COC[C@H]1CCCN1c1cnc2ccc(Nc3nnc(C4CCCC4)s3)nc2c1` [Example 0062]: the figures for the IC50 in assay [1] and in assay [2] were under 1000 nM and 1 to 10 µM, respectively.
For `CC(=O)N1CCC(Nc2cnc3ccc(Nc4nnc(C5CCCC5)s4)nc3c2)CC1` [Example 0063] the same measures were under 1000 nM and under 1 µM.
The like results for `CN1CCN(c2cnc3ccc(Nc4nnc(C5CCCC5)s4)nc3c2)CCC1=O` [Example 0064, 1-(6-((5-cyclopentyl-1,3,4-thiadiazol-2-yl)amino)-1,5-naphthyridin-3-yl)-4-methyl-1,4-diazepan-5-one hydrochloride] were, in that order, under 1000 nM and 1 to 10 µM.
For `CC(=O)N1CCC(Nc2cnc3ccc(Nc4nnc(C5CCCC5)s4)nc3c2)C1` (centres unmarked) [Example 0065] the same measures were under 1000 nM and 1 to 10 µM.
As to `c1cc(N2CCOCC2)ncc1Nc1cnc2ccc(Nc3nnc(C4CCCC4)s3)nc2c1` [Example 0066], the results for the IC50 in assay [1] and in assay [2] were under 1000 nM and under 1 µM, respectively.
Turning to `COc1ccc(Nc2cnc3ccc(Nc4nnc(C5CCCC5)s4)nc3c2)cn1` [Example 0067], the results for the IC50 in assay [1] and in assay [2] were under 1000 nM and under 1 µM, respectively.
For `c1ccc(CNc2cnc3ccc(Nc4nnc(C5CCCC5)s4)nc3c2)nc1` [Example 0068], the IC50 in assay [1] is under 1000 nM; in assay [2] it was 1 to 10 µM.
With `c1ccc(-c2ccc(Nc3cnc4ccc(Nc5nnc(C6CCCC6)s5)nc4c3)cn2)cc1` [Example 0069], the IC50 in assay [1] was 1000 to 10000 nM; in assay [2] it was 10 to 50 µM.
In the case of `c1ccc(-c2cncc(Nc3cnc4ccc(Nc5nnc(C6CCCC6)s5)nc4c3)c2)cc1` [Example 0070], the IC50 is under 1000 nM in assay [1] and under 1 µM in assay [2].
Regarding `c1cnn(-c2cncc(Nc3cnc4ccc(Nc5nnc(C6CCCC6)s5)nc4c3)c2)c1` [Example 0073], the IC50 was under 1000 nM in assay [1] and under 1 µM in assay [2].
